Data as given in PMC8887546, “Design and Synthesis of Brain Penetrant Glycopeptide Analogues of PACAP With Neuroprotective Potential for Traumatic Brain Injury and Parkinsonism” (Frontiers in drug discovery, 2022).

Assays:
Assay type in all cases: cell-based
[1] = biological target: T1, human VPAC2 receptor (Homo sapiens, UniProt P41587); assay: cAMP stimulation in CHO cells expressing VPAC2
T1 construct: expressed in transfected cells; host or cells: CHO cells (G418 selection)
T1 sequence (P41587 24-438): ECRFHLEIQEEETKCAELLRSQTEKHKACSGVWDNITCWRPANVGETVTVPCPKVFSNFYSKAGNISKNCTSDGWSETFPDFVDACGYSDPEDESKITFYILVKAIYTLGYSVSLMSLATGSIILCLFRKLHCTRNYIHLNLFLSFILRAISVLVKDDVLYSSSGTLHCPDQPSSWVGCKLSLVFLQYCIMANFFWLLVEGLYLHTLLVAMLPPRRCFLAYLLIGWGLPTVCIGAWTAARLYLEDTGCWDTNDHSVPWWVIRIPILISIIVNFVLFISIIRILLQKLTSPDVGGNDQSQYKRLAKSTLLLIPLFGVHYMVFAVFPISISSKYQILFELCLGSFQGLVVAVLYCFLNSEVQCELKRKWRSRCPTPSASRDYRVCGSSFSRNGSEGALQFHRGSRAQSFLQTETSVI
How it was run: (§1)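 Serum-starved CHO cells expressing human receptors were pre-treated 20 min with 500 μM IBMX, then exposed to agonist concentration curves for 10 min in 500 μM IBMX. cAMP quantified by competition with bovine PKA and ^3H-cAMP (1 h, room temperature), scintillation read.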

[2] = biological target: T2, human VPAC1 receptor (Homo sapiens, UniProt P32241); assay: cAMP stimulation in CHO cells expressing VPAC1
T2 construct: expressed in transfected cells; host or cells: CHO cells (G418 selection)
T2 sequence (P32241 31-457): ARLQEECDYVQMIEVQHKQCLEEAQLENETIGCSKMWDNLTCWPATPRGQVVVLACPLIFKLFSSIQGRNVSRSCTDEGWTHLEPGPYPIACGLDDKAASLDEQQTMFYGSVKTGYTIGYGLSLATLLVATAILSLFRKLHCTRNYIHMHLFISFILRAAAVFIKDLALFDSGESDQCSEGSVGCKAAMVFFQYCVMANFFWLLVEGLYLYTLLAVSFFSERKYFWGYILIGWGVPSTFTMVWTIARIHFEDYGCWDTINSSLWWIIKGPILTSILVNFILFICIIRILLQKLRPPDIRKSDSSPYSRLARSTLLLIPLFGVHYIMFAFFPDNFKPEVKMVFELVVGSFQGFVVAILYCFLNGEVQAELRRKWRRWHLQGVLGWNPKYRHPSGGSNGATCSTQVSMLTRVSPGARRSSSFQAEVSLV

[3] = biological target: T3, human PAC1 receptor (Homo sapiens, UniProt P41586); assay: cAMP stimulation in CHO cells expressing PAC1
T3 construct: expressed in transfected cells; host or cells: CHO cells (G418 selection)
T3 sequence (P41586 21-468): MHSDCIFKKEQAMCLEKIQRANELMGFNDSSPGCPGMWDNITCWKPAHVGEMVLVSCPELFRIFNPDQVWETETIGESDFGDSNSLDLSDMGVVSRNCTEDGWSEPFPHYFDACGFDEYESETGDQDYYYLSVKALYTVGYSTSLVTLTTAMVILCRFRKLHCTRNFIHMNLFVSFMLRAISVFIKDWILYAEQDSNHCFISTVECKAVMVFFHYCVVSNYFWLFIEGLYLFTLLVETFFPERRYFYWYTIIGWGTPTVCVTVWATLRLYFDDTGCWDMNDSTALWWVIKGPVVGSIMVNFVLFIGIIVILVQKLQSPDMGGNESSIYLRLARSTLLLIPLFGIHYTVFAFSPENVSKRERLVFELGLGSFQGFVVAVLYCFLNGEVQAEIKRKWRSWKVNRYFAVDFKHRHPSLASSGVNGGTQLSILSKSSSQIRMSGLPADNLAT
How it was run: as §1

EC50 [1]: 156 nM
Emax ([1]; CHO): 106%
Receptor selectivity ratio VPAC2/PAC1 ([1]; ratio of cAMP EC50 values): 69.96
Receptor selectivity ratio VPAC2/VPAC1 ([1]; ratio of cAMP EC50 values): 50.98
Emax ([2]; CHO, read-out: VPAC1 Emax): 108%
Receptor selectivity ratio VPAC1/PAC1 ([2]; ratio of cAMP EC50 values): 1.37
EC50 ([2]; read-out: VPAC1 EC50): 3.06 nM
EC50 [3]: 2.23 nM
Emax ([3]; CHO): 102%
Compound: CC[C@H](C)[C@H](NC(=O)CNC(=O)[C@H](CC(=O)O)NC(=O)[C@H](CO)NC(=O)[C@@H](N)Cc1c[nH]cn1)C(=O)N[C@@H](Cc1ccccc1)C(=O)N[C@H](C(=O)N[C@@H](CC(=O)O)C(=O)N[C@@H](CO)C(=O)N[C@@H](Cc1ccc(O)cc1)C(=O)N[C@@H](CO)C(=O)N[C@@H](CCCNC(=N)N)C(=O)N[C@@H](Cc1ccc(O)cc1)C(=O)N[C@@H](CCCNC(=N)N)C(=O)N[C@@H](CCCCN)C(=O)N[C@@H](CCC(N)=O)C(=O)N[C@@H](CC(C)C)C(=O)N[C@@H](C)C(=O)N[C@H](C(=O)N[C@@H](CCCCN)C(=O)N[C@@H](CCCCN)C(=O)N[C@@H](Cc1ccc(O)cc1)C(=O)N[C@@H](CC(C)C)C(=O)N[C@@H](C)C(=O)N[C@@H](C)C(=O)N[C@H](C(=O)N[C@@H](CC(C)C)C(=O)N[C@@H](CO[C@@H]1O[C@H](CO)[C@@H](O)[C@H](O)[C@H]1O)C(=O)N[C@@H](CO[C@@H]1O[C@H](CO)[C@@H](O)[C@H](O)[C@H]1O)C(N)=O)C(C)C)C(C)C)[C@@H](C)O [Compound 2LS140]
